The source of these data is PubChem BioAssay AID330 (DTP/NCI, 2004).

This assay relates to P388 leukemia ip, CD2F1 mice, survival T/C. Kind of assay: NCI In Vivo Anticancer Drug Screen. Data for tumor model P388 Leukemia (intraperitoneal) in CD2F1 (CDF1) mice. As to conditions: endpoint: median survival time, higher = longer survival. The method in brief:
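Mice carrying the transplanted tumor received test compound or vehicle. Survival was recorded in each group, and the value is the treated-group measurement divided by that of the vehicle-treated control group.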

Setting [1] is: dose: 50.0 mg/kg/injection, schedule: Q01DX005 (ip), vehicle: saline with Tween-80.
Setting [2] is: dose: 100.0 mg/kg/injection, schedule: Q01DX005 (ip), vehicle: saline with Tween-80.
Setting [3] is: dose: 200.0 mg/kg/injection, schedule: Q01DX005 (ip), vehicle: saline with Tween-80.
The mark [4] stands for this setting: dose: 60.0 mg/kg/injection, schedule: Q01DX005 (ip), vehicle: Klucel (hydroxypropylcellulose) (HPC).
[5] abbreviates: dose: 20.0 mg/kg/injection, schedule: Q01DX009 (ip), vehicle: saline.
Where [6] appears, read: dose: 50.0 mg/kg/injection, schedule: Q01DX009 (ip), vehicle: saline with Tween-80.
Where [7] appears, read: dose: 100.0 mg/kg/injection, schedule: Q01DX009 (ip), vehicle: saline with Tween-80.

Where “and” joins values, the source holds several entries; their conditions need not be identical. Equal values may be shown once. Toxic doses and inconclusive results are not listed.

In the case of `COC(=O)NC1C(C)OC(OC2C/C=C(/C)C3C=CC4C(OC5CC(OC6CCC(OC7CC(O)C(OC8CCC(O)C(C)O8)C(C)O7)C(C)O6)C(OC(C)=O)C(C)O5)C(C)CC(C)C4C3(C)/C(O)=C3/C(=O)OC4(CC(C=O)=CC(O)C4/C=C\2C)C3=O)CC1(C)[N+](=O)[O-]` (configuration not stated), the T/C was 97 % of control (dose: 2.25 mg/kg/injection, schedule: Q01DX005 (iv), vehicle: water); 106 % of control and 120 % of control (dose: 2.5 mg/kg/injection, schedule: Q01DX005 (ip), vehicle: water); 121 % of control (dose: 3.06 mg/kg/injection, schedule: Q01DX005 (ip), vehicle: water); 96 % of control (dose: 3.35 mg/kg/injection, schedule: Q01DX005 (iv), vehicle: water); 121 % of control (dose: 4.49 mg/kg/injection, schedule: Q01DX005 (ip), vehicle: water); 121 % of control (dose: 5.0 mg/kg/injection, schedule: Q01DX005 (ip), vehicle: water). In addition, the T/C runs as follows: (dose: 5.0 mg/kg/injection, schedule: Q01DX005 (iv), vehicle: water) 95 % of control; (dose: 6.7 mg/kg/injection, schedule: Q01DX005 (ip), vehicle: water) 118 % of control; (dose: 7.47 mg/kg/injection, schedule: Q01DX005 (iv), vehicle: water) 97 % of control; (dose: 10.0 mg/kg/injection, schedule: Q01DX005 (ip), vehicle: water) 121 % of control and 123 % of control and 124 % of control; (dose: 11.14 mg/kg/injection, schedule: Q01DX005 (iv), vehicle: water) 96 % of control.

Regarding `CCn1c(=O)c2c(N(C)C)snc2n(CC)c1=O`, the T/C reads like this: (dose: 50.0 mg/kg/injection, schedule: Q01DX009 (ip), vehicle: saline) 96 % of control; (dose: 100.0 mg/kg/injection, schedule: Q01DX009 (ip), vehicle: saline) 107 % of control; (dose: 200.0 mg/kg/injection, schedule: Q01DX009 (ip), vehicle: saline) 110 % of control.

Regarding `CCOC(=O)C(C)c1ccccc1-c1cccc(OC)c1` (configuration not stated), the T/C is, setting by setting: under setting [1], 94 % of control; under setting [2], 97 % of control; under setting [3], 103 % of control.

For the compound `CCC/C(=N\NC(N)=NC)c1ccc2c(c1)Cc1ccccc1-2`, the T/C by setting is: (dose: 50.0 mg/kg/injection, schedule: Q04DX002 (ip), vehicle: saline with Tween-80) 106 % of control; (dose: 100.0 mg/kg/injection, schedule: Q04DX002 (ip), vehicle: saline with Tween-80) 102 % of control; (dose: 200.0 mg/kg/injection, schedule: Q04DX002 (ip), vehicle: saline with Tween-80) 104 % of control.

On to `COC(=O)C1=NC(=S)N=C(C(=O)OC)C12Cc1ccccc1C2=O`, for which the T/C under setting [4] is 92 % of control; the T/C (dose: 120.0 mg/kg/injection, schedule: Q01DX005 (ip), vehicle: Klucel (hydroxypropylcellulose) (HPC)) is 93 % of control; the T/C (dose: 240.0 mg/kg/injection, schedule: Q01DX005 (ip), vehicle: Klucel (hydroxypropylcellulose) (HPC)) is 102 % of control.

As to `CCOC(=O)CC1C(=O)N(c2nc(-c3ccc(Br)cc3)cs2)N=C1C` (configuration not stated), the T/C is, setting by setting: (dose: 50.0 mg/kg/injection, schedule: Q01DX009 (ip), vehicle: Klucel (hydroxypropylcellulose) (HPC)) 96 % of control; (dose: 100.0 mg/kg/injection, schedule: Q01DX009 (ip), vehicle: Klucel (hydroxypropylcellulose) (HPC)) 101 % of control; (dose: 200.0 mg/kg/injection, schedule: Q01DX009 (ip), vehicle: Klucel (hydroxypropylcellulose) (HPC)) 103 % of control.

Regarding `Cc1cc(O)c2c(c1)C(=O)c1cc(O)cc(OC3OC(CO)C(O)C(O)C3O)c1C2=O` (configuration not stated), the T/C is, setting by setting: (dose: 5.0 mg/kg/injection, schedule: Q01DX009 (ip), vehicle: saline) 105 % of control; (dose: 10.0 mg/kg/injection, schedule: Q01DX009 (ip), vehicle: saline) 105 % of control; under setting [5], 89 % of control.

In the case of `CCC[As](=O)(O)CCC`, the T/C is 100 % of control under setting [5]; 86 % of control (dose: 25.0 mg/kg/injection, schedule: Q04DX003 (ip), vehicle: saline); 100 % of control (dose: 30.0 mg/kg/injection, schedule: Q01DX009 (ip), vehicle: saline); 113 % of control (dose: 45.0 mg/kg/injection, schedule: Q01DX009 (ip), vehicle: saline); 109 % of control (dose: 50.0 mg/kg/injection, schedule: Q04DX003 (ip), vehicle: saline); 90 % of control (dose: 100.0 mg/kg/injection, schedule: Q04DX003 (ip), vehicle: saline).

As to `CN(C)c1ccc2c(=O)cc[nH]c2c1`, the T/C was 96 % of control (dose: 50.0 mg/kg/injection, schedule: Q01DX005 (ip), vehicle: saline); 100 % of control (dose: 100.0 mg/kg/injection, schedule: Q01DX005 (ip), vehicle: saline); 100 % of control (dose: 200.0 mg/kg/injection, schedule: Q01DX005 (ip), vehicle: saline).

In the case of `CCOC(=O)c1[nH]cnc1N`, the T/C (dose: 15.0 mg/kg/injection, schedule: Q01DX005 (ip), vehicle: saline with Tween-80) was 104 % of control; the T/C (dose: 30.0 mg/kg/injection, schedule: Q01DX005 (ip), vehicle: saline with Tween-80) was 101 % of control; the T/C (dose: 60.0 mg/kg/injection, schedule: Q01DX005 (ip), vehicle: saline with Tween-80) was 104 % of control and 106 % of control; the T/C (dose: 120.0 mg/kg/injection, schedule: Q01DX005 (ip), vehicle: saline with Tween-80) is 100 % of control; the T/C (dose: 240.0 mg/kg/injection, schedule: Q01DX005 (ip), vehicle: saline with Tween-80) is 104 % of control.

Take `O=c1oc2ccccc2c(O)c1C1=N/C(=N/N=C/c2ccc(Cl)cc2)SC1`: the T/C (dose: 15.0 mg/kg/injection, schedule: Q01DX005 (ip), vehicle: Klucel (hydroxypropylcellulose) (HPC)) was 98 % of control; the T/C (dose: 30.0 mg/kg/injection, schedule: Q01DX005 (ip), vehicle: Klucel (hydroxypropylcellulose) (HPC)) was 100 % of control; the T/C under setting [4] was 101 % of control and 87 % of control; the T/C (dose: 60.0 mg/kg/injection, schedule: Q02DX002 (ip), vehicle: Klucel (hydroxypropylcellulose) (HPC)) was 97 % of control; the T/C (dose: 120.0 mg/kg/injection, schedule: Q02DX002 (ip), vehicle: Klucel (hydroxypropylcellulose) (HPC)) was 89 % of control; the T/C (dose: 240.0 mg/kg/injection, schedule: Q02DX002 (ip), vehicle: Klucel (hydroxypropylcellulose) (HPC)) was 93 % of control.

As to `C/C(=N\Nc1cccc2ccccc12)c1ccccn1`, the T/C under setting [1] was 111 % of control, the T/C under setting [2] was 103 % of control and the T/C under setting [3] was 98 % of control.

Regarding `CCOC(=O)NC(N)=O`, the T/C was 91 % of control under setting [6]; 89 % of control under setting [7]; 89 % of control (dose: 200.0 mg/kg/injection, schedule: Q01DX009 (ip), vehicle: saline with Tween-80); 97 % of control (dose: 400.0 mg/kg/injection, schedule: Q01DX009 (ip), vehicle: saline with Tween-80).

With `CC1C(=O)C(C)C(c2ccc(Cl)cc2)OC1c1ccccc1` (configuration not stated), the T/C is 94 % of control (dose: 50.0 mg/kg/injection, schedule: Q01DX001 (ip), vehicle: Klucel (hydroxypropylcellulose) (HPC)); 95 % of control (dose: 100.0 mg/kg/injection, schedule: Q01DX001 (ip), vehicle: Klucel (hydroxypropylcellulose) (HPC)); 105 % of control (dose: 200.0 mg/kg/injection, schedule: Q01DX001 (ip), vehicle: Klucel (hydroxypropylcellulose) (HPC)).

`COc1cc2cc[n+]3cc4c(ccc5ccccc54)cc3c2cc1OC`: the T/C by setting is: (dose: 6.25 mg/kg/injection, schedule: Q04DX003 (ip), vehicle: distilled water + Tween-80) 166 % of control; (dose: 12.5 mg/kg/injection, schedule: Q04DX003 (ip), vehicle: distilled water + Tween-80) 158 % of control; (dose: 12.5 mg/kg/injection, schedule: Q04DX003 (ip), vehicle: water) 152 % of control; (dose: 25.0 mg/kg/injection, schedule: Q04DX003 (ip), vehicle: distilled water + Tween-80) 177 % of control.

`Cc1cc(Cl)ccc1NC(=O)Oc1nc2ccccc2o1`: the T/C is, setting by setting: (dose: 12.5 mg/kg/injection, schedule: Q01DX009 (ip), vehicle: saline with Tween-80) 104 % of control and 96 % of control; (dose: 25.0 mg/kg/injection, schedule: Q01DX009 (ip), vehicle: saline with Tween-80) 99 % of control and 101 % of control; under setting [6], 111 % of control and 96 % of control; under setting [7], 101 % of control and 112 % of control.
